In ChEMBL document CHEMBL1158821, “Anti-inflammatory sesquiterpene-quinones from the New Zealand sponge Dysidea cf. cristagalli” (J Nat Prod, 2005):

What was measured:
[1] = Toxicity against human HL60 cells assessed as inhibition of cell proliferation; assay type: cell-based; conditions: HL-60 cells
[2] = Antiinflammatory activity in PMA-induced human neutrophils assessed as inhibition of superoxide production; assay type: functional, cell-based; conditions: Neutrophil

IC50 [2] | Structure (SMILES) | IC50 [1]
11000 nM | CC1=CC[C@H]2C(C)(C)CCC[C@]2(C)[C@H]1CC1=C(O)C(=O)C=CC1=O | 340 nM
3000 nM | CC(=O)Oc1ccc(O)c(C[C@H]2C(C)=CC[C@H]3C(C)(C)CCC[C@]23C)c1O | 370 nM
